The source of these data is PubChem BioAssay AID179 (DTP/NCI, 2004).

As usually defined, the EC50 is the midpoint of the concentration-response curve. The term IC50 denotes the midpoint of a concentration-inhibition curve. The low end stands for higher potency, the high end for lower potency.

In this experiment the test system is CEM cells HIV-1 protection, formazan growth assay. Put plainly: NCI AIDS Antiviral Assay. Particulars: for IC50: measured here: growth of uninfected CEM cells. The gist of the method:
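Screen of anti-HIV-1 activity in human CEM cells using a formazan-based growth measurement at five drug concentrations. Hits with 50% or greater protection were repeated, and confirmation required reproducible complete protection.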

Active and inactive are the calls of the source.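 The calls were made as follows: active = compounds giving half or more protection of infected cells from virus-caused growth loss, again on retest; inactive = the rest.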

`[O-]c1c2c(nn1-c1ccc(Cl)cc1)c1ccccc1c[n+]2Cc1ccccc1`: the EC50 is above 5.13 µM and the IC50 was above 5.13 µM.

`CCCCCCNC(=O)CNC(=O)c1ccccc1SC(=O)CCCC[n+]1ccccc1`: the EC50 was above 200 µM and the IC50 was 34.7 µM.

In the case of `O=c1[nH]c(=O)n(C2CC(O)C(CO)O2)cc1C#Cc1ccc(C(F)(F)F)cc1` (configuration not stated), the EC50 is above 631 µM and the IC50 came to 91.2 µM.

Regarding `COCCOCCOCCOc1cccc2c1C(=O)c1cccc(OCCOCCOCCOC)c1C2=O`, the outcome was inactive.

As for `CN1C(=O)C2C=CC1C1CCC2N(C)C1=O` (configuration not stated), the result was inactive.

On to `COCn1c(C(=O)c2ccc(OC)cc2)cc2ccccc21`, for which the EC50 was above 33.9 µM and the IC50 is above 33.9 µM.

With `Cc1nn(C(=O)CC(=O)Nc2ccccc2Cl)c(C)c1N=Nc1ccccc1F`, the outcome was inactive.

Consider `CCCCCCC[C@@H](O)CC(=O)NC(CC(C)C)C(=O)NC(CCC(=O)O)C(=O)NC1C(=O)NC(C(C)C)C(=O)NC(CC(C)C)C(=O)NC(CO)C(=O)NC(CC(C)C)C(=O)NC(CO)C(=O)NC(C(C)CC)C(=O)OC1C` (some centres not stated), for which the EC50 is 91.2 µM and the IC50 is 166 µM.

Turning to `CCOC(=O)/C(C#N)=C/c1ccc(C#N)cc1`, the EC50 was above 22.9 µM and the IC50 is above 22.9 µM.

Turning to `CC1CCC2(OC1)OC1CC3C4CCC5CC(O)CCC5(C)C4CC(=O)OC3(C)C1C2C` (configuration not stated), the result was inactive.

Take `C/C=C1/C(=C/c2[nH]c(/C=c3\[nH]/c(=C/C4=NC(=O)C(CC)=C4C)c(C)c3CCC(=O)O)c(CCC(=O)O)c2C)NC(=O)C1C` (configuration not stated): the result was inactive.

Consider `Cc1ccc(Nc2nc(NS(=O)(=O)c3cc(C)c(Cl)cc3S)n(C)n2)cc1`, for which the EC50 was above 200 µM and the IC50 was determined as 105 µM.

Turning to `C/C(CC(=O)Nc1cccc([N+](=O)[O-])c1)=N/NC(N)=S`, the EC50 was above 447 µM and the IC50 is above 447 µM.

For the molecule `CC(=O)Nc1cccc(N2C(=O)/C(=C\c3cccc(Oc4ccccc4)c3)S(=O)(=O)C2c2ccccc2)c1` (configuration not stated), the EC50 was above 200 µM and the IC50 was 34.7 µM.

As for `CCC1=C(C(C)=O)[C@@H]2CCCCC[C@@H](C(=O)OC)C2C1=O` (some centres not stated), the EC50 is 191 µM and the IC50 is above 200 µM.

For `COc1ccc(C2OC(=O)c3ccccc32)c2ccccc12` (configuration not stated), the EC50 was above 46.8 µM and the concentration for half-maximal inhibition (IC50) was above 46.8 µM.

On to `CC(C)(CO)C(O)C(=O)NCCS(=O)(=O)O` (configuration not stated), for which the EC50 is above 200 µM and the IC50 is above 200 µM.

In the case of `Cn1cc(C(=O)NCCC(=N)N)cc1NC(=O)C1=[N+](C)C=C(NC(=O)c2cccc(C(=O)NC3=CC(C(=O)Nc4cc(C(=O)NCCC(=N)N)cn4C)=[N+](C)C3)c2)C1`, the EC50 is 3.47 µM and the IC50 came out at 74.1 µM.

With `CCOC(=O)C1=NNC(C(=O)c2ccccc2)C1c1ccccc1` (configuration not stated), the EC50 is above 200 µM and the IC50 came to 2.19 µM.

Regarding `O=C1C(Cl)=C(Cl)C(=O)N1C1C2CC3CC(C2)CC1C3` (configuration not stated), the result was inactive.

Regarding `COc1ccc2c(N=[N+]=[N-])c(-c3ccccc3)c(=O)oc2c1`, the result was inactive.

For the molecule `C=C(C)CNC(=S)N(N)c1ccc(OC)cc1`, the EC50 was above 200 µM and the IC50 worked out at 69.2 µM.

For `COc1ccc(/C=N/Nc2nnc3c4ccccc4c4ncccc4c3n2)cc1`, the EC50 is above 501 µM and the IC50 is above 501 µM.

With `COC1N(C2CC(N=[N+]=[N-])C(CO)O2)C(=O)NC(=O)C1(C)Cl` (configuration not stated), the EC50 was 6.61 µM and the IC50 amounted to 891 µM.

Turning to `CC(=O)C(C)(O)C(OP(=O)(O)O)c1ccccc1` (configuration not stated), the EC50 was above 200 µM and the IC50 is above 200 µM.

As for `COc1ccc(-c2cc(-c3ccccc3)c(C#N)c(=O)[nH]2)cc1`, the EC50 is above 61.7 µM and the IC50 was above 61.7 µM.

Turning to `COC(=O)C1=C(O)C(O)=C(C(=O)OC)CC1`, the EC50 is 468 µM and the IC50 worked out at 912 µM.

On to `CC1(C)CCC[C@@]2(C)C1CC[C@H]1CC(O)C3(C)CCC12C3` (some centres not stated), for which the EC50 was above 12.3 µM and the IC50 was above 12.3 µM.

With `COC1/C=C\OC2(C)Oc3c(C)c(O)c4c(O)c(c(/C=N\N5CCCC5)c(O)c4c3C2=O)NC(=O)/C(C)=C\C=C/C(C)C(O)C(C)C(O)C(C)C(OC(C)=O)C1C` (configuration not stated), the outcome was inactive.

As for `N#Cc1cccc(C2SCc3nc4ccccc4n32)c1` (configuration not stated), the EC50 is 19.5 µM and the IC50 was found to be 60.3 µM.

As to `O=C(CC1(O)C(=O)Nc2c(Cl)cc(Cl)cc21)c1cccc2ccccc12` (configuration not stated), the EC50 was above 67.6 µM and the IC50 is above 67.6 µM.

For the molecule `CC(=O)N1N=C(c2ccc3ccccc3c2O)CC1c1ccc(Cl)cc1Cl` (configuration not stated), the EC50 was above 200 µM and the IC50 worked out at 22.9 µM.

In the case of `Cc1ccc(C2=Nn3c(nc4sc5c(c4c3=O)CCCC5)SC2)cc1`, the EC50 was above 200 µM and the IC50 was above 200 µM.

On to `c1ccc2c3nc4ccccc4c-3scc2c1`, for which the EC50 is above 56.2 µM and the IC50 worked out at 6.46 µM.

In the case of `O=C1NN(Cc2ccccc2)C(=O)N2CCC[C@@H]12`, the EC50 was above 200 µM and the IC50 is above 200 µM.

Regarding `CN(C)CC1CCC/C1=N/OC(=O)c1ccccc1` (configuration not stated), the result was inactive.

Turning to `CC(C)OC1CC(C)(C)c2c(-c3ccccc3)nn(-c3ccccc3)c2O1` (configuration not stated), the EC50 is above 61.7 µM and the IC50 was determined as 38 µM.

For the molecule `CC(C)N(CN1C(=O)N/C(=C/c2cccc(/C=C3/NC(=O)N(CN(C(C)C)C(C)C)C3=O)c2)C1=O)C(C)C`, the EC50 was above 501 µM and the IC50 was 75.9 µM.

Turning to `O=[N+]([O-])OC1CCCC(O[N+](=O)[O-])c2c1n([O-])c1ccccc1[n+]2=O` (configuration not stated), the EC50 is above 51.3 µM and the IC50 was determined as 1.41 µM.

Take `COc1ccc(C2Oc3c(cc(O)c(OC)c3C)[C@@H]2C)cc1OC` (some centres not stated): the EC50 was above 79.4 µM and the IC50 was determined as 47.9 µM.

For `CCCC1N=C(c2ccccc2)C2C(c3ccc([N+](=O)[O-])cc3)N12` (configuration not stated), the EC50 was above 200 µM and the IC50 is 148 µM.

Regarding `CC(C)(C)C1=CP(=O)(c2ccccc2)C=C(C(C)(C)C)N1`, the EC50 is above 200 µM and the IC50 was above 200 µM.

With `CCC1NC(=O)C1NC(=O)OC` (configuration not stated), the outcome was inactive.

For the molecule `CC(C)(C)[Si](C)(C)OCC1=C(CC#N)C(O[Si](C)(C)C(C)(C)C)C(n2ccc(=O)[nH]c2=O)O1` (configuration not stated), the EC50 is above 200 µM and the IC50 came out at 9.33 µM.

Regarding `NNc1cnn(-c2ccccc2)c(=O)c1Cl`, the EC50 is above 57.5 µM and the IC50 was 4.57 µM.

`O=C1CCCC2=C1C(c1ccncc1)Nc1ccccc1N2` (configuration not stated): the EC50 is above 200 µM and the IC50 is above 200 µM.

Regarding `CCOC(=O)C(C)C(CCC#N)(C(=O)OCC)C(=O)OCC` (configuration not stated), the EC50 was above 200 µM and the IC50 is above 200 µM.

On to `CC1(CC(=O)O)C(=O)CCCC1=O`, for which the outcome was inactive.

Take `COc1ccc(NC(=O)C(=O)C2CNC(=O)NC2=O)c(OC)c1` (configuration not stated): the EC50 is above 209 µM and the IC50 is above 209 µM.

As for `S=C(Nc1cccc(Cl)c1)Nc1ccccn1`, the EC50 is above 200 µM and the IC50 was above 200 µM.

On to `COc1cc(/C=C(\C#N)c2ccc(Cl)cc2)ccc1OCc1ccccc1`, for which the EC50 was above 200 µM and the IC50 was above 200 µM.

Consider `COc1ccc2oc(C(=O)O)c3c2c1CCC3CCC(=O)O` (configuration not stated), for which the outcome was inactive.
